Measured values taken from ChEMBL document CHEMBL3751846, “Active site-directed plasmin inhibitors: Extension on the P2 residue” (Bioorg Med Chem, 2016).
Square brackets hold non-standard residues; d marks the D form. Peptide text beside a SMILES is read from it. * marks the point of attachment. pNA = O=[N+]([O-])c1ccc(N*)cc1

Legend:
[1] = target: T1, Plasminogen (Homo sapiens, UniProt P00747); test: Inhibition of plasmin (unknown origin) using H-D-Val-Leu-Lys-pNA as substrate
[2] = target: Urokinase-type plasminogen activator (Homo sapiens, UniProt P00749); test: Inhibition of urokinase (unknown origin) using Pyr-Glu-Gly-Arg-pNA as substrate; settings: for inhibition: concentration not given here
[3] = target: Trypsin (Homo sapiens, UniProt P07477+P07478+P35030); test: Inhibition of trypsin (unknown origin) using H-D-Phe-Pip-Arg-pNA as substrate; type: protein assay
[4] = target: T1, Plasminogen; test: Inhibition of plasmin (unknown origin)
[5] = target: T1, Plasminogen; test: Inhibition of human plasmin assessed as inhibition of fibrinolysis in presence of fibrinogen
[6] = target: T1, Plasminogen; test: Inhibition of human plasmin assessed as inhibition of fibrinogenolysis in presence of fibrinogen
[7] = target: T1, Plasminogen; test: Inhibition of human plasmin assessed as inhibition of amidolysis in presence of fibrinogen
[8] = target: T1, Plasminogen; test: Inhibition of human plasmin

T1 sequence (P00747 97-580 limits assumed): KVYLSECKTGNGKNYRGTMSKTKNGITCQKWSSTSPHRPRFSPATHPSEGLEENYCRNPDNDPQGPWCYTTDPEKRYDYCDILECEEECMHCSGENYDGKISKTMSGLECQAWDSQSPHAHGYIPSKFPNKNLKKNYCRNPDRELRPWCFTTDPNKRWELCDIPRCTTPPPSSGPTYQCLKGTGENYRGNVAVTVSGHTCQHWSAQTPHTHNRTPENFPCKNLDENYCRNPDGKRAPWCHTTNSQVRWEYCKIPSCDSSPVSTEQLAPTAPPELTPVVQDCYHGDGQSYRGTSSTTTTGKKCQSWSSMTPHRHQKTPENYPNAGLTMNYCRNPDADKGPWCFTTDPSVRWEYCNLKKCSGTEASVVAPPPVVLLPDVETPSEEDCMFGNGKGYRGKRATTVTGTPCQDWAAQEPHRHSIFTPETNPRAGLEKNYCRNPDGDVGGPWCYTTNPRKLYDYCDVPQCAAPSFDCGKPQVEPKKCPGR
T1 sequence (P00747 581-810 limits assumed): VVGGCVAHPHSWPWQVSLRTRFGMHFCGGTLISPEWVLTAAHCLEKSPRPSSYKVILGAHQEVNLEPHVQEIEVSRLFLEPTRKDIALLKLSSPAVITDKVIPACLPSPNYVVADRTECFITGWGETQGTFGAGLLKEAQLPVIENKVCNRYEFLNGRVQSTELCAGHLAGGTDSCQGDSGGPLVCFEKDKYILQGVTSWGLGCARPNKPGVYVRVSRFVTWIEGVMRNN

Row | Structure (SMILES) | IC50 [1] [nM] | IC50 [2] [nM] | inhibition [2] [%] | IC50 [3] [nM] | IC50 [4] [nM] | IC50 [5] [nM] | IC50 [6] [nM] | Ki [7] [nM] | IC50 [8] [nM]
1 | CC[C@@H](C)[C@@H](N)C(=O)N[C@@H](Cc1ccc(OCc2ccncc2)cc1)C(=O)N[C@H](C#N)CCCCN |  |  |  |  | 11000 |  |  |  | 
2 | CCCCCCCCNC(=O)[C@H](Cc1ccc(OC(C)(C)C)cc1)NC(=O)[C@H]1CC[C@H](CN)CC1 | 17000 | > 100000 | 17 | 380 |  |  |  |  | 
3 | CCCCCCCCNC(=O)[C@H](Cc1ccc(OCc2ccc(C(F)(F)F)cc2)cc1)NC(=O)[C@H]1CC[C@H](CN)CC1 | 960 | > 100000 | 6 | 6900 |  |  |  |  | 
4 | CCCCCCCCNC(=O)[C@H](Cc1ccc(OCc2cccc3ccccc23)cc1)NC(=O)[C@H]1CC[C@H](CN)CC1 | 1600 | > 100000 | 10 | 2700 |  |  |  |  | 
5 | CCCCCCCCNC(=O)[C@H](Cc1ccc(OCc2cccc(N)c2)cc1)NC(=O)[C@H]1CC[C@H](CN)CC1 | 860 | > 100000 | 31 | 860 |  |  |  |  | 
6 | CCCCCCNC(=O)[C@H](Cc1ccc(OCc2cccnc2)cc1)NC(=O)c1ccc(CN)cc1 |  |  |  |  |  | 2900 | 4500 | 2900 | 
7 | CC(C)C[C@H](NC(=O)[C@H](N)C(C)C)C(=O)N[C@@H](CCCCN)C(=O)Nc1ccc([N+](=O)[O-])cc1 (H-[dV]-Leu-Lys-pNA) |  |  |  |  |  |  |  |  | 530
8 | CC[C@@H](C)[C@@H](N)C(=O)N[C@@H](Cc1ccc(OCc2cccc(OCc3ccncc3)c2)cc1)C(=O)N[C@H](C#N)CCCCN |  |  |  |  | 7700 |  |  |  | 
9 | CCCCCCCCNC(=O)[C@H](Cc1ccc(O)cc1)NC(=O)[C@H]1CC[C@H](CN)CC1 | 67000 | 62000 |  | 1000 |  |  |  |  | 
10 | CCCCCCCCNC(=O)[C@H](Cc1ccc(OCc2ccccc2C(F)(F)F)cc1)NC(=O)[C@H]1CC[C@H](CN)CC1 | 3000 | > 100000 | 5 | 4600 |  |  |  |  | 
11 | CCCCCCCCNC(=O)[C@H](Cc1ccc(OCc2ccccc2C(=O)OC)cc1)NC(=O)[C@H]1CC[C@H](CN)CC1 | 1500 | > 200000 | 23 | 4800 |  |  |  |  | 
12 | CCCCCCCCNC(=O)[C@H](Cc1ccc(OCc2cccc(OCc3ccncc3)c2)cc1)NC(=O)[C@H]1CC[C@H](CN)CC1 | 970 | > 50000 | 36 | 1300 |  |  |  |  | 
13 | CCCCCCCCNC(=O)[C@H](Cc1ccc(OCc2ccccc2)cc1)NC(=O)[C@H]1CC[C@H](CN)CC1 | 1700 | > 100000 | 0 | 2200 |  |  |  |  | 
14 | CCCCCCCCNC(=O)[C@H](Cc1ccc(OCc2ccc(C(=O)O)cc2)cc1)NC(=O)[C@H]1CC[C@H](CN)CC1 | 2700 | > 100000 | 22 | 4700 |  |  |  |  | 
15 | CCCCCCCCNC(=O)[C@H](Cc1ccc(OCc2cccc(-c3ccccc3)c2)cc1)NC(=O)[C@H]1CC[C@H](CN)CC1 | 750 | > 100000 | 41 | 6700 |  |  |  |  | 

Continued, values first:

Row | IC50 [1] [nM] | IC50 [2] [nM] | inhibition [2] [%] | IC50 [3] [nM] | IC50 [4] [nM] | IC50 [5] [nM] | IC50 [6] [nM] | Ki [7] [nM] | IC50 [8] [nM] | Structure (SMILES)
16 | 340 | > 100000 | 24 | 930 |  |  |  |  |  | CCCCCCCCNC(=O)[C@H](Cc1ccc(OCc2cccc3cccnc23)cc1)NC(=O)[C@H]1CC[C@H](CN)CC1
17 | 680 | > 100000 | 13 | 2100 |  |  |  |  |  | CCCCCCCCNC(=O)[C@H](Cc1ccc(OCc2cccc([N+](=O)[O-])c2)cc1)NC(=O)[C@H]1CC[C@H](CN)CC1
18 | 710 | > 100000 | 23 | 4400 |  |  |  |  |  | CCCCCCCCNC(=O)[C@H](Cc1ccc(OCc2ccc3ccccc3c2)cc1)NC(=O)[C@H]1CC[C@H](CN)CC1
19 | 220 | 77000 |  | 1400 |  |  |  |  |  | CCCCCCCCNC(=O)[C@H](Cc1ccc(OCc2ccc3ccccc3n2)cc1)NC(=O)[C@H]1CC[C@H](CN)CC1
20 | 490 | > 200000 | 40 | 6100 |  |  |  |  |  | CCCCCCCCNC(=O)[C@H](Cc1ccc(OCc2ccc(C(=O)OCC)cc2)cc1)NC(=O)[C@H]1CC[C@H](CN)CC1
21 | 600 | > 100000 | 12 | 2500 |  |  |  |  |  | CCCCCCCCNC(=O)[C@H](Cc1ccc(OCc2cccc(C(F)(F)F)c2)cc1)NC(=O)[C@H]1CC[C@H](CN)CC1
22 | 530 | 5300 |  | 1100 |  |  |  |  |  | CCCCCCCCNC(=O)[C@H](Cc1ccc(OCc2ccncc2)cc1)NC(=O)[C@H]1CC[C@H](CN)CC1
23 | 530 | > 50000 | 13 | 2000 |  |  |  |  |  | CCCCCCCCNC(=O)[C@H](Cc1ccc(OCc2cccc(C(=O)O)c2)cc1)NC(=O)[C@H]1CC[C@H](CN)CC1
24 | 510 | > 50000 | 7 | 2700 |  |  |  |  |  | CCCCCCCCNC(=O)[C@H](Cc1ccc(OCc2cccc(C(=O)OCC)c2)cc1)NC(=O)[C@H]1CC[C@H](CN)CC1
